Results as given in patent US20150352108A1, “AMINO-PYRIMIDINE COMPOUNDS AS INHIBITORS OF TBK1 AND/OR IKK EPSILON” (Alzheimer's Institute of America, priority 2009, published 2015).
Where two headings read alike, the source gives them in different places.

Tests used:
[1] = molecular target: T1, TBK1 (Homo sapiens, UniProt Q9UHD2); assay: In-vitro TBK1 kinase assay ([γ33]ATP filter-plate); type: biochemical
T1 construct: His-tag; made in house; host or cells: Sf9 insect cells
T1 sequence (Q9UHD2 1-729): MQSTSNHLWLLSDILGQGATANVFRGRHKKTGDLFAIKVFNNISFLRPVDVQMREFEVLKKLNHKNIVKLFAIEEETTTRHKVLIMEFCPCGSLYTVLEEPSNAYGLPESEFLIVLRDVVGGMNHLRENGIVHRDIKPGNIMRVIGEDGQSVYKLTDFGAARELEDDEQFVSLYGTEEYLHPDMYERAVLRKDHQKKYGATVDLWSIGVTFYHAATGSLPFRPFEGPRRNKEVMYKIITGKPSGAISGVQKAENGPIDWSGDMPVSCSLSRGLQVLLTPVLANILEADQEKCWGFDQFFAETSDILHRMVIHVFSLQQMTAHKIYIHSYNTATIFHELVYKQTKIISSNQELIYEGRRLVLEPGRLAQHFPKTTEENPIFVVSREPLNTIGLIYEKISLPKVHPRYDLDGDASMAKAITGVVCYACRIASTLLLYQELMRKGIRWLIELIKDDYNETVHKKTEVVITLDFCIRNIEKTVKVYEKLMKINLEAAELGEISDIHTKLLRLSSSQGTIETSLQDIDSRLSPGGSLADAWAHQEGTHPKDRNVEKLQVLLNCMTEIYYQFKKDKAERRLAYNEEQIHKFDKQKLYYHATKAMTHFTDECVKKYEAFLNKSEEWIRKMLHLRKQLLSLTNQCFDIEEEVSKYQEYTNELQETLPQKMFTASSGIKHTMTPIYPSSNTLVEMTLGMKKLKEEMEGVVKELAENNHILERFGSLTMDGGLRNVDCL
Outline: (§1)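 His-tagged IKKε and TBK1 from Sf9 cells were assayed with myelin basic protein or casein and [γ33]ATP at 2×Km ATP (32 μM for IKKε, 60 μM for TBK1). Enzyme was 0.1 or 0.015 μg/ml for IKKε and 0.1 or 0.02 μg/ml for TBK1 (normal/sensitized). Reactions ran 30-45 min, were filter-captured, scintillation-counted, and normalized to DMSO after background subtraction.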

[2] = molecular target: T2, IKKε (Homo sapiens, UniProt Q14164); assay: In-vitro IKKε kinase assay ([γ33]ATP filter-plate); type: biochemical
T2 construct: His-tag; made in house; host or cells: Sf9 insect cells
T2 sequence (Q14164 1-716): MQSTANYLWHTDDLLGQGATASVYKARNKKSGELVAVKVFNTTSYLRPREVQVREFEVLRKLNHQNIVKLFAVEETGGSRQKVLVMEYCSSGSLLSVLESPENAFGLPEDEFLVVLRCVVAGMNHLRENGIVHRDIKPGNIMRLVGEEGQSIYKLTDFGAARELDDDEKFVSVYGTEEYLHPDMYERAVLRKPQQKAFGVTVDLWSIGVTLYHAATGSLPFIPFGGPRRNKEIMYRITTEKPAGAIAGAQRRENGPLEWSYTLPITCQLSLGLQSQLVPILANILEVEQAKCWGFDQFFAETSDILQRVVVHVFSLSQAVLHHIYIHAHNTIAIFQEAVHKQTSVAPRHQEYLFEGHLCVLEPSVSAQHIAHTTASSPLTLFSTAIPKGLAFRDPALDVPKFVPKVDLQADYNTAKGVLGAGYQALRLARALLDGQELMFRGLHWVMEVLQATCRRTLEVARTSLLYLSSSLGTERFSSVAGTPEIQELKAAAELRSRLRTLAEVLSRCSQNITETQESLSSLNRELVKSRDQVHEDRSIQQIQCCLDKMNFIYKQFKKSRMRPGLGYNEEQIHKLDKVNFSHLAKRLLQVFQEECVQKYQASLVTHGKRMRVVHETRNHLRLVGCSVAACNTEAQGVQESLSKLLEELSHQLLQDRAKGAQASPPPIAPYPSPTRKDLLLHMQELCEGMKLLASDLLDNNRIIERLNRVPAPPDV
Outline: as §1

[3] = tested on: IKKε-mediated phosphorylation of IRF3; assay: In-situ phosphorylation of IRF3 (pIRF3 Ser396 ELISA) in HEK293T cells cotransfected with IRF3 and IKKε; type: cell-based; settings: Homo sapiens, HEK-293T
Outline: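 Cells for the IRF7 Western blots carried IRF7 and TBK1 plasmids, were seeded at 150,000/well, exposed to compound overnight and probed for pSer477/Ser479 IRF7. The ELISA readout used IRF3 + IKKε-cotransfected HEK293T at 20,000/well with 20 h treatment, quantifying pSer396 IRF3 relative to DMSO, plus a parallel CellTiter-Glo viability check.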

[4] = text bins, read-out: IC50 for inhibition of the kinase activity of TBK1
[5] = text bins, read-out: IC50 for inhibition of the kinase activity of IKKε
[6] = HEK293T cells, 20 hours, text bins, read-out: IC50 for inhibition of the in-situ IKKε-mediated phosphorylation of IRF3
[7] = HEK293T cells in culture, Table 3, read-out: pIRF3 ELISA IC50

Row | SMILES | IC50 [1, 4] [nM] | IC50 [2, 5] [nM] | IC50 [3, 6] [nM] | IC50 ([1]; Table 3, read-out: TBK1 IC50) [nM] | IC50 ([2]; Table 3, read-out: IKKε IC50) [nM] | IC50 [3, 7] [nM]
1 | COc1cc(Nc2nccc(-c3ccc(OC4CCOCC4)c(C#N)c3)n2)ccc1S(=O)(=O)N1CCC(N(C)C)C1 (stereo not drawn) [compound 400, 5-{2-[(4-{[3-(dimethylamino)pyrrolidin-1-yl]sulfonyl}-3-methoxyphenyl)amino]pyrimidin-4-yl}-2-(tetrahydro-2H-pyran-4-yloxy)benzonitrile] | < 10 | < 5 | < 100 |  |  | 
2 | COc1cc(Nc2nccc(-c3ccc(OC4CCOCC4)c(C#N)c3)n2)ccc1C(=O)N1CCN2CCCC2C1 (stereo not drawn) [compound 501, 5-(2-{[4-(hexahydropyrrolo[1,2-a]pyrazin-2(1H)-ylcarbonyl)-3-methoxyphenyl]amino}pyrimidin-4-yl)-2-(tetrahydro-2H-pyran-4-yloxy)benzonitrile] | < 10 | < 5 | < 100 | 0.1 | 1.1 | 25.9
3 | COc1cc(Nc2nccc(-c3ccc(OC4CCOCC4)c(C#N)c3)n2)ccc1O [Example 262, 5-{2-[(4-hydroxy-3-methoxyphenyl)amino]pyrimidin-4-yl}-2-(tetrahydro-2H-pyran-4-yloxy)benzonitrile] | < 10 | < 5 | 250 to 500 |  |  | 
4 | N#Cc1cc(-c2ccnc(Nc3ccc(N4CCOCC4)cc3)n2)ccc1NC1CCOCC1 [compound 468, 5-(2-{[4-(morpholin-4-yl)phenyl]amino}pyrimidin-4-yl)-2-(tetrahydro-2H-pyran-4-ylamino) benzonitrile] | < 10 | 5 to 50 | < 100 |  |  | 
5 | CCN(CC)CCOCCOc1cc(Nc2nccc(-c3ccc(OC4CCOCC4)c(C#N)c3)n2)ccc1OC [compound 531, 5-{2-[(3-{2-[2-(diethylamino)ethoxy]ethoxy}-4-methoxyphenyl)amino]pyrimidin-4-yl}-2-(tetrahydro-2H-pyran-4-yloxy)benzonitrile] | < 10 | < 5 | < 100 |  |  | 
6 | N#Cc1cc(-c2ccnc(Nc3ccc(F)c(OCCN4CCNCC4)c3)n2)ccc1OC1CCOCC1 [compound 626, 5-[2-({4-Fluoro-3-[2-(piperazin-1-yl)ethoxy]phenyl}amino)pyrimidin-4-yl]-2-(tetrahydro-2H-pyran-4-yloxy)benzonitrile] | < 10 | < 5 | < 100 |  |  | 
7 | COc1cc(Nc2nccc(-c3ccc(OC4CCOCC4)c(C#N)c3)n2)ccc1C(=O)N1CC(O)C1 [compound 485, 5-[2-({4-[(3-Hydroxyazetidinb-1-yl)carbonyl]-3-methoxyphenyl}amino)pyrimidin-4-yl]-2-(tetrahydro-2H-pyran-4-yloxy)benzonitrile] | < 10 | < 5 | < 100 |  |  | 
8 | N#Cc1cc(-c2ccnc(Nc3cccc(CN4CCC(O)C4)c3)n2)ccc1OC1CCOCC1 (stereo not drawn) [compound 561, 5-[2-({3-[(3-Hydroxypyrrolidin-1-yl)methyl]phenyl}amino)pyrimidin-4-yl]-2-(tetrahydro-2H-pyran-4-yloxy)benzonitrile] | < 10 | < 5 | < 100 | 0.7 | 0.4 | 56
9 | Cc1ccc(Nc2nccc(-c3ccc(OC4CCOCC4)c(C#N)c3)n2)cc1OCCN [compound 559, 5-(2-{[3-(2-Aminoethoxy)-4-methylphenyl]amino}pyrimidin-4-yl)-2-(tetrahydro-2H-pyran-4-yloxy)benzonitrile] | < 10 | < 5 | < 100 |  |  | 
10 | COc1cc(Nc2nccc(-c3ccc(OC4CCN(C(=O)[C@H](C)O)CC4)c(C#N)c3)n2)ccc1N1CCOCC1 [Example 208, 2-({1-[(2S)-2-hydroxypropanoyl]piperidin-4-yl}oxy)-5-(2-{[3-methoxy-4-(morpholin-4-yl)phenyl]amino}pyrimidin-4-yl)benzonitrile] | < 10 | < 5 | 250 to 500 |  |  | 
11 | COc1cc(Nc2nccc(-c3ccc(OC4CCN(C(=O)CO)C4)c(C#N)c3)n2)ccc1N1CCOCC1 (stereo not drawn) [Example 223, 2-{[1-(hydroxyacetyl)pyrrolidin-3-yl]oxy}-5-(2-{[3-methoxy-4-(morpholin-4-yl)phenyl]amino}pyrimidin-4-yl)benzonitrile] | < 10 | < 5 | < 100 |  |  | 
12 | CC1CC1C(=O)Nc1ccc(-c2ccnc(Nc3ccc(N4CCOCC4)cc3)n2)cc1C#N (stereo not drawn) [compound 415, N-[2-cyano-4-(2-{[4-(morpholin-4-yl)phenyl]amino}pyrimidin-4-yl)phenyl]-2-methylcyclopropane-carboxamide] | < 10 | < 5 | < 100 |  |  | 
13 | CCN(CC)CCOc1cc(Nc2nccc(-c3ccc(OC4CCOCC4)c(C#N)c3)n2)ccc1C [compound 618, 5-[2-({3-[2-(Diethylamino)ethoxy]-4-methylphenyl}amino)pyrimidin-4-yl]-2-(tetrahydro-2H-pyran-4-yloxy)benzonitrile] | < 10 | < 5 | < 100 |  |  | 
14 | C[C@H](O)C(=O)N1CCC(Oc2ccc(-c3ccnc(Nc4ccc(C(=O)N5CCN(C)CC5)cc4)n3)cc2C#N)CC1 [Example 35, 2-({1-[(2S)-2-hydroxypropanoyl]piperidin-4-yl}oxy)-5-[2-({4-[(4-methylpierazin-1-yl)carbonyl]phenyl}amino)pyrimidin-4-yl]benzonitrile] | < 10 | < 5 | 250 to 500 |  |  | 
15 | N#Cc1cc(-c2ccnc(Nc3cccc(N)c3)n2)ccc1OC1CCOCC1 [compound 393, 5-{2-[(3-Aminophenyl)amino]pyrimidin-4-yl}-2-(tetrahydro-2H-pyran-4-yloxy)benzonitrile] | < 10 | < 5 | < 100 |  |  | 
16 | COc1cc(Nc2nccc(-c3ccc(OC4CCOCC4)c(C#N)c3)n2)ccc1C(=O)N1CC(N(C)C)C1 [compound 377, 5-{2-[(4-{[3-(dimethylamino)azetidin-1-yl]carbonyl}-3-methoxyphenyl)amino]pyrimidin-4-yl}-2-(tetrahydro-2H-pyran-4-yloxy)benzonitrile] | < 10 | < 5 | 100 to 250 |  |  | 
17 | COc1cc(Nc2nccc(-c3ccc(OC4CCOCC4)c(C#N)c3)n2)ccc1S(=O)(=O)NC1CCN(C)CC1 [Example 253, 4-({4-[3-cyano-4-(tetrahydro-2H-pyran-4-yloxy)phenyl]pyrimidin-2-yl}amino)-2-methoxy-N-(1-methylpiperidin-4-yl)benzenesulfonamide] | < 10 | < 5 | 250 to 500 |  |  | 
18 | COc1cc(Nc2nccc(-c3ccc(OC4CCOCC4)c(C#N)c3)n2)ccc1CN1CC(N2CCOCC2)C1 [compound 481, 5-{2-[(3-Methoxy-4-{[3-(morpholin-4-yl)azetidin-1-yl]methyl}phenyl)amino]pyrimidin-4-yl}-2-(tetrahydro-2H-pyran-4-yloxy)benzonitrile] | < 10 | < 5 | < 100 |  |  | 
